Earlier results as cited in publication PMC11682675 (Infection and Drug Resistance, 2024).
Residues, ends and D or L forms follow the SMILES beside them.

Details: reported by some studies

SMILES: CC[C@H](C)CCCCC(=O)N[C@@H](CCN)C(=O)N[C@H](C(=O)N[C@@H](CCN)C(=O)N[C@H]1CCNC(=O)[C@H]([C@@H](C)O)NC(=O)[C@H](CCN)NC(=O)[C@H](CCN)NC(=O)[C@H](CC(C)C)NC(=O)[C@@H](Cc2ccccc2)NC(=O)[C@H](CCN)NC1=O)[C@@H](C)O [PMB, Polymyxin B] (HELM PEPTIDE1{[CC[C@H](C)CCCCC(=O)[*:2]].[Dab].T.[Dab].[Dab].[Dab].[dF].L.[Dab].[Dab].T}$PEPTIDE1,PEPTIDE1,5:R3-11:R2$$$V2.0)
- CL of PMB in ECMO patients: 1.16 L/h
- Vd of PMB in ECMO patients: 19.7 L
